The nature of data set [1]: Oral bioavailability in CD1 mouse at 10 mg/kg. Type of data set: ADME, organism-based. To be noted: in vivo.
Data set [2] can be described thus: Solubility of the compound in phosphate buffer at pH 6.5. It counts as physicochemical.

≈ marks a conversion by molar mass, not a printed value.

This is an account of results in ChEMBL document CHEMBL2010786, “Design and synthesis of benzenesulfonamide derivatives as potent anti-influenza hemagglutinin inhibitors” (ACS Med Chem Lett, 2011).

As usually defined, the bioavailability is dose-corrected exposure relative to a reference, in per cent. On to `CC1(C)C[C@H](O)C[C@](C)(CNc2ccc(Cl)c(S(N)(=O)=O)c2)C1`, for which the bioavailability in data set [1] came out at 70%.

A word on the solubility: it is how much of the substance goes into solution per volume. Higher therefore signals a readily soluble substance. In data set [1], `CC1(C)C[C@H](O)C[C@](C)(CNc2cccc(S(N)(=O)=O)c2)C1` (relative stereo) had a bioavailability of 75%. Further, the solubility in data set [2] was 141 µg/mL (≈ 432 µM).

`CC1(C)C[C@H](O)C[C@](C)(CNc2cc(Cl)cc(S(N)(=O)=O)c2)C1`: the bioavailability in data set [1] worked out at 55%.
